Assay results taken from patent publication US12421269B2, “SGLT2/DPP4 inhibitor and application thereof” (CGeneTech (Suzhou, China) CO., Ltd., priority 2019, dated 2025).

How the values were obtained:
[1] = target: recombinant human dipeptidyl peptidase 4 (rhDPP4) (Homo sapiens, UniProt P27487); test: rhDPP4 inhibitor screening experiment; type: biochemical; details: Gly-Pro-aminofluorescein substrate, 1 hour at room temperature
Source text: To evaluate the inhibitory activity of compounds against recombinant human dipeptidyl peptidase 4 (rhDPP4) by measuring the half-inhibitory concentration (IC50) values of the compounds. In the experiment, rhDPP4 was used to catalyze the generation of […] from substrate, the substrate was a luminescent precursor […], and the substrate and luciferase were reacted to generate a light signal, the intensity of the light signal was proportional to the enzyme activity.
• 1) The gradient diluted compounds (4-fold fold-dilution, 10 assay concentrations) were transferred 250 nL into a 384-well plate (PerkingElmer-6007299) using a non-contact nano-acoustic pipetting system (ECHO), and dimethyl sulfoxide (DMSO) concentration was 0.5% in the final reaction system. Blank control wells (containing DMSO, substrate and 10 mM Tris-HCl) and positive control wells (containing DMSO, substrate and rhDPP4) were set up. • 2) The pre-dispensed frozen buffer containing luciferase was removed and restored to room temperature, and then the substrate was added to configure a working solution with a substrate concentration of 20 μM. RhDPP4 was prepared as a working solution of 0.2 ng/mL using 10 mM Tris-HCl (pH 8.0) aqueous solution. • 3) 25 μL of working solution containing 20 μM substrate and 25 μL of working solution containing 0.2 ng/mL rhDPP4 were added to a 384-well plate with the addition of the compound, then the mixture was centrifuged for 30 s at 1000 rpm, the plate was sealed with aluminum foil sealing film and incubated for 1 hour at room temperature. • 4) The intensity of the light signal was detected by EnVision, a multifunctional microplate reader. The raw data were used to calculate the inhibition of rhDPP4 activity by the compound. % of inhibition activity=100−(compound well signal value−blank control well signal value)/(positive control well signal value−blank control well signal value)*100. • The percent of inhibition was imported into GraphPad Prism software for data processing to derive the corresponding dose-effect curves and to derive the IC50 values of the tested compounds.

Human-SGLT1 = target: T1, Human-SGLT1 (Homo sapiens, UniProt P13866); test: SGLT1 glucose transport assay ([14C]-labeled glucose uptake); type: cell-based; details: cells stably expressing Human-SGLT1, 37° C., 2 hours
T1 sequence (P13866 1-664): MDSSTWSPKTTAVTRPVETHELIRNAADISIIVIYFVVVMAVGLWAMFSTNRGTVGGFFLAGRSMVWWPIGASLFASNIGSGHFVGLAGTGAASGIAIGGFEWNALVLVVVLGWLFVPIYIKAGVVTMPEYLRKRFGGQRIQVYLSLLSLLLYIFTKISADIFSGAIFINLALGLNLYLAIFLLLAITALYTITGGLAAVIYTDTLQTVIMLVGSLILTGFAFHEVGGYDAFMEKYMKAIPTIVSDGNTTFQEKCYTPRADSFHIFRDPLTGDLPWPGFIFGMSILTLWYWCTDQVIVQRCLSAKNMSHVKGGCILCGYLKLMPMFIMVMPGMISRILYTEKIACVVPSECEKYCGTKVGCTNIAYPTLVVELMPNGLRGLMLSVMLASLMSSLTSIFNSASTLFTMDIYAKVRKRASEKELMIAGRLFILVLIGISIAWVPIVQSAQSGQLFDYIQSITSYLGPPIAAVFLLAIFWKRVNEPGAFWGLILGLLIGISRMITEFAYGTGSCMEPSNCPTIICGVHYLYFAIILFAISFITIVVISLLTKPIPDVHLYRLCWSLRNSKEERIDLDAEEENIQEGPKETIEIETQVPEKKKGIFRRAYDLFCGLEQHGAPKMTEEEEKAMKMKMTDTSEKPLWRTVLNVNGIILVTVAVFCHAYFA
Experimental: To test the effect of compounds on the glucose transport activity of SGLT1 transporters by measuring the amount of [^14C]-labeled glucose entering highly expressed Human-SGLT1 cells.
The cells stably expressing Human-SGLT1 used for the experiments were constructed by WuXi AppTec Shanghai. The SGLT1 cells were plated in Cytostar-T (PerkinElmer) 96-well cell culture plates and cultured overnight at 5% CO2, 37° C.
Experimental buffer: 10 mM 4-hydroxyethylpiperazine ethanesulfonic acid (HEPES), 1.2 mM magnesium chloride (MgCl2), 4.7 mM potassium chloride (KCl), 2.2 mM calcium chloride (CaCl2) and 120 mM sodium chloride (NaCl).
The compounds were diluted with 100% dimethyl sulfoxide (DMSO) at a starting concentration of 1 mM, 8 points of 5-fold serial gradient dilution was made.
3 μM [^14C]-labeled methyl α-D-glucopyranoside (Methyl a-D-glucopyranosid) was prepared with experimental buffer.
Cells were treated with 49 μL of experimental buffer, 1 μL of gradient-diluted compound and 50 μL of 3 μM [^14C]-isotope-labeled glucose solution at 37° C. for 2 hours.
Readings were taken with an isotope detector (Micro beta Reader).
The data were calculated by GraphPad Prism 5.0 software using the formula: log(inhibitor) vs. response—Variable slope to obtain the IC50 values of the tested compounds, and the experimental results are shown in Table 5.

[2] = In vivo DMPK study in mice; details: male C57 mice; for Oral DNAUC (AUCPO/Dose): 10 mg/kg oral; for bioavailability / Cmax / clearance / half-life / Vd: mouse, plasma; for bioavailability: 1 mg/kg intravenous and 10 mg/kg oral, read-out: F % (oral bioavailability); for Cmax / clearance / half-life / Vd: single dose, 1 mg/kg intravenous or 10 mg/kg oral; for clearance: read-out: Cl (clearance rate); for half-life: read-out: T1/2 (half-life) (converted); for Vd: read-out: Vdss (volume of distribution)
Source text: Experimental purpose: Male C57 mice were used as test animals to determine blood concentrations of compounds and assess pharmacokinetic behavior after a single dose.
Experimental procedure: Six healthy adult male C57 mice were selected, three of them for the intravenous injection group and three of them for the oral group. The compounds to be tested were mixed with an appropriate amount of intravenous injection group solvent (20% polyethylene glycol-400 (PEG400)/10% polyethylene glycol-15 hydroxystearate (solutol)/70% H2O), the mixture was vortexed and sonicated to obtain 1 mg/mL clarified solution, then the clarified solution was filtered through a microporous membrane and prepared for use; solvent for the oral group was 20% polyethylene glycol-400 (PEG400)/10% polyethylene glycol-15 hydroxystearate (solutol)/70% H2O, and the compounds to be tested were mixed with the solvent, then the mixture was vortexed and sonicated to obtain 1 mg/mL clarified solution. After 1 mg/kg intravenous administration or 10 mg/kg oral administration in mice, whole blood was collected for a certain period of time, then the plasma was prepared to obtain, and the drug concentration was analyzed by LC-MS/MS method, then the pharmacokinetic parameters were calculated using Phoenix WinNonlin software (Pharsight, USA).

Chain of recombinant human dipeptidyl peptidase 4 (rhDPP4) (P27487 whole entry): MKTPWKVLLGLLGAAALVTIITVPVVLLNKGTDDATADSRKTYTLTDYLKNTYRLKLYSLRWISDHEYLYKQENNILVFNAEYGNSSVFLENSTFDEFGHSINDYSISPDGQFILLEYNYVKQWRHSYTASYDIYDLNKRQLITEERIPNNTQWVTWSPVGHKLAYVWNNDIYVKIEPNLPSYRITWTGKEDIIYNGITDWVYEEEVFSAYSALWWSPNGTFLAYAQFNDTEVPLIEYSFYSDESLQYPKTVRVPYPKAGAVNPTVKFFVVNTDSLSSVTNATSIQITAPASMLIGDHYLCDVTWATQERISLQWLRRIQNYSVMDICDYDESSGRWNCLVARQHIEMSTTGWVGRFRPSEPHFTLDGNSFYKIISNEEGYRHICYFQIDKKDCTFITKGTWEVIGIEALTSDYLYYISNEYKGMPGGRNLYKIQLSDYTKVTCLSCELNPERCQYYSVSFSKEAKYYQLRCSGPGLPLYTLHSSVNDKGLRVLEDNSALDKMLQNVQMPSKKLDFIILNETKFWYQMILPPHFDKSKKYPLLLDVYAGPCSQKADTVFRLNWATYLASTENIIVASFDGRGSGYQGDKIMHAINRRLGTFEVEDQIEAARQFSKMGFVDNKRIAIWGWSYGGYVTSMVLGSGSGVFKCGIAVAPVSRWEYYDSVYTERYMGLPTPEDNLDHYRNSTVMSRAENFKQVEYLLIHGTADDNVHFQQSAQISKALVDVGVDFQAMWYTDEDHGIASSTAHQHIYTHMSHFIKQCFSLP

SMILES | IC50 [1] [nM] | IC50 (Human-SGLT1) [nM] | Oral DNAUC (AUCPO/Dose) [2] [nM · h/mpk] | bioavailability [2] [%] | Cmax [2] [nM] | clearance [2] [mL/min/kg] | half-life [2] [h] | Vd [2] [L/kg]
CS[C@H]1O[C@@H](c2cc(Cc3ccc(O[C@@H]4CCN([C@H]5CO[C@H](c6cc(F)ccc6F)[C@@H](N)C5)C4)cc3)c(F)cc2F)[C@H](O)[C@@H](O)[C@@H]1O [WX006] | 26.9 | 298 | 151.3 | 18.7 | 250 | 29.1 | 10.5 | 12
CS[C@H]1O[C@@H](c2ccc(F)c(Cc3ccc(O[C@@H]4CCN([C@H]5CO[C@H](c6cc(F)ccc6F)[C@@H](N)C5)C4)cc3)c2)[C@H](O)[C@@H](O)[C@@H]1O [WX001] | 31 | 1280 | 194.8 | 21.4 | 308 | 31.4 | 7.39 | 12.2
